The text below walks through data of US3958000A, “Fungicidal 2-arylthio-, 2-alkylthio- and 2-haloalkylthio-1,2,4-oxadiazolidine-3,5-diones” (Chevron Research Company, priority 1975, dated 1976).

A word on the inhibition: it is the drop in the measured response relative to a control, in per cent.

What all share (type): cell-based
One assay concerns Botrytis cinerea. As to the kind of experiment: Fungal spore control (spore slide-germination) against Botrytis cinerea. As to conditions: Conc. 10 ppm, overnight in moist chamber, read-out: % Control (percent inhibition of germination of fungus spores).
Another assay has as its system Alternaria solani. As to the kind of experiment: Fungal spore control (spore slide-germination) against Alternaria solani. The settings on record: Conc. 4 ppm, overnight in moist chamber, read-out: % Control (percent inhibition of germination of fungus spores).
The subject of another assay is Monolinia fructicola. As to the kind of experiment: Fungal spore control (spore slide-germination) against Monolinia fructicola. The settings on record: Conc. 10 ppm, overnight in moist chamber, read-out: % Control (percent inhibition of germination of fungus spores).

For the molecule `O=c1on(SC(Cl)(Cl)Cl)c(=O)n1C1CCCCC1` [Compound 1, 2-trichloromethylthio-4-cyclohexyl-1,2,4-oxadiazolidine-3,5-dione], the inhibition at 10 ppm in the assay on Botrytis cinerea and with Monolinia fructicola was 100% in each case. Also, the inhibition at 4 ppm in the assay with Alternaria solani turned out to be 78%.
For `CC(C)n1c(=O)on(SC(Cl)(Cl)Cl)c1=O` [Compound 3], the inhibition at 10 ppm with Botrytis cinerea and in the assay with Monolinia fructicola was 100% in each case. In addition, in the assay on Alternaria solani, the inhibition at 4 ppm was determined as 99%.
